Experimental data taken from patent publication US8563717B2, “Adenine derivatives” (GlaxoSmithKline LLC, priority 2008, dated 2013).

Key:
Assay type in all cases: cell-based
TNF-α = assay: Induction of TNF-α using fresh human PBMCs; details: PBMC, 24 hr incubation, relative to 2 μM resiquimod control, read-out: mean pEC50 for induction of TNF-α (converted)
Method: (§1) Assay for the Induction of Interferon-α and TNF-α Using Fresh Human Peripheral Blood Mononuclear Cells (PBMCs)
(§2) Compounds were dissolved and serially diluted in DMSO to give 100× the required concentration range using a Biomek 2000. 1 ul of test compound was transferred into 96-well tissue culture plates using a Biomek FX. Each compound was assayed in duplicate for each donor. Each plate contained a dilution series of the TLR7/8 agonist resiquimod as standard and Column 11 contained 1 μl of 200 μM resiquimod (giving a 2 μM final concentration, used to define the approximate maximal response to resiquimod).
(§3) Blood samples from two human donors were collected into sodium heparin (10 U/ml). 25 ml volumes of whole blood were overlaid onto 15 mls Histopaque in Leucosep tubes which were centrifuged at 800 g for 20 min and the band at the plasma/histopaque interface carefully removed. The collected cells were centrifuged at 2500 rpm for 10 min. and the pellet resuspended in 10 ml of media (RPMI 1640 (Low endotoxin) supplemented with 10% v/v foetal calf serum (FCS, low endotoxin) 100 U/ml penicillin G, 100 μg/ml streptomycin, 10 mM L-glutamine and 1× non-essential amino acids). A 1:20 dilution of the cells was prepared using trypan blue & the cells counted using a haemocytometer. The PBMCs were diluted to give a final concentration of 2×10^6/ml and 100 ul of this cells suspension was added to wells containing 1 μl of diluted test compound.
(§4) The cell preparations were incubated for 24 hr. (37° C., 95% air, 5% CO2) after which a sample of the supernatant was removed using the Biomek FX and assayed for both IFN-α and TNF-α using the MSD (Mesoscale Discovery) electrochemiluminescence assay platform. The IFN-α assay was carried out similarly to that described above. The TNF-α assay was carried out as per kit instructions (Cat No K111BHB).
(§5) Cytokine released was expressed as a percentage of the 2 μM resiquimod control (column 11). This percentage was plotted against compound concentration and the pEC50 for the response determined by non-linear least squares curve fitting. For the IFN-α responses generally a 4 parameter logistic model was selected. For the TNF responses where a clear maximum response was obtained (i.e. a well defined plateau in the response was observed) then a 4 parameter model was generally used. If the upper asymptote of the curve wasn't well defined then the curve fitting was generally constrained to a maximal response of 100% (i.e., to the response to 2 μM resiquimod) or to the response of the highest concentration tested if this was greater than the resiquimod response. Some curves were bell shaped for one or both cytokines and the cytokine data on the down slope of the bell shaped response (i.e. concentrations above those giving the maximal response) were generally excluded from the fit, usually with the exception of the concentration immediately above the peak response. Curve fitting thus concentrated on the up slope of the dose response curve.

Interferon-α [1] = assay: Induction of Interferon-α using cryopreserved human PBMCs; details: PBMC, 24 h incubation, normalised to 1 uM resiquimod, read-out: mean pEC50 for induction of IFN-α (converted)
Summary of the method: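 Cryopreserved healthy-donor PBMCs at 1×10^6 cells/ml in RPMI/10% FCS with 1000 units/ml IFN-gamma, exposed 24 h at 37 °C to 11-point two-fold compound dilutions. Supernatant IFN-α quantified by MSD electrochemiluminescence immunoassay; pEC50 from 4-parameter fit, normalised to 1 uM resiquimod and DMSO.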

Interferon-α [2] = assay: Induction of Interferon-α using fresh human PBMCs; details: PBMC, 24 hr incubation, relative to 2 μM resiquimod control, read-out: mean pEC50 for induction of IFN-α (converted)
Method: as §1, §2, §3, §4, §5

| EC50 (TNF-α) [nM] | EC50 (Interferon-α [2]) [nM] | Structure (SMILES) | EC50 (Interferon-α [1]) [nM] |
| --- | --- | --- | --- |
| > 31.6 | < 0.316 | CCC[C@H](C)Oc1nc(N)c2[nH]c(=O)n(CCCCC3CCCN(CC)C3)c2n1 (stereo partly drawn) [Example 66, 6-Amino-9-[4-(1-ethyl-3-piperidinyl)butyl]-2-{[(1S)-1-methylbutyl]oxy}-7,9-dihydro-8H-purin-8-one] | < 1580 |
| > 1000 | < 1 | CCCCOc1nc(N)c2[nH]c(=O)n(CCCC3CCN(CCC)CC3)c2n1 [Example 94, 6-Amino-2-(butyloxy)-9-[3-(1-propyl-4-piperidinyl)propyl]-7,9-dihydro-8H-purin-8-one] | < 1580 |
| > 1000 | < 1 | CCCCOc1nc(N)c2[nH]c(=O)n(CCCCC3CCN(CCC)CC3)c2n1 [Example 108, 6-Amino-2-(butyloxy)-9-[4-(1-propyl-4-piperidinyl)butyl]-7,9-dihydro-8H-purin-8-one] | < 1580 |
| > 31.6 | < 0.316 | CCC[C@H](C)Oc1nc(N)c2[nH]c(=O)n(CCC3CCCN(CC)C3)c2n1 (stereo partly drawn) [Example 41, 6-Amino-9-[2-(1-ethyl-3-piperidinyl)ethyl]-2-{[(1S)-1-methylbutyl]oxy}-7,9-dihydro-8H-purin-8-one] | < 1580 |
| > 1000 | < 10 | CCCCOc1nc(N)c2[nH]c(=O)n(CCCC3CCN(C4CCCCC4)CC3)c2n1 [Example 102, 6-Amino-2-(butyloxy)-9-[3-(1-cyclohexyl-4-piperidinyl)propyl]-7,9-dihydro-8H-purin-8-one] | < 1580 |
| > 1000 | < 10 | CCCCOc1nc(N)c2[nH]c(=O)n(CCCCCC3CCCN(C(C)C)C3)c2n1 (stereo not shown) [Example 69, 6-Amino-2-(butyloxy)-9-{5-[1-(1-methylethyl)-3-piperidinyl]pentyl}-7,9-dihydro-8H-purin-8-one] | < 1580 |
| > 1000 | < 10 | CCCCOc1nc(N)c2[nH]c(=O)n(CCCC3CCN(C(C)C)CC3)c2n1 [Example 95, 6-Amino-2-(butyloxy)-9-{3-[1-(1-methylethyl)-4-piperidinyl]propyl}-7,9-dihydro-8H-purin-8-one] | < 1580 |
| > 1000 | < 100 | CCCCOc1nc(N)c2[nH]c(=O)n(CCC3CCN(C(C)C)CC3)c2n1 [Example 81, 6-Amino-2-(butyloxy)-9-{2-[1-(1-methylethyl)-4-piperidinyl]ethyl}-7,9-dihydro-8H-purin-8-one] | < 1580 |
| > 1000 | < 100 | CC(C)Oc1nc(N)c2[nH]c(=O)n(CCCCC3CCNCC3)c2n1 [Example 135, 6-Amino-2-[(1-methylethyl)oxy]-9-[4-(4-piperidinyl)butyl]-7,9-dihydro-8H-purin-8-one] | < 1580 |
| > 1000 | < 1 | CCCCOc1nc(N)c2[nH]c(=O)n(CCC3CCCN(C4CCCCC4)C3)c2n1 (stereo not shown) [Example 38, 6-Amino-2-(butyloxy)-9-[2-(1-cyclohexyl-3-piperidinyl)ethyl]-7,9-dihydro-8H-purin-8-one] | < 1580 |
| > 31.6 | < 0.316 | CCC[C@H](C)Oc1nc(N)c2[nH]c(=O)n(CCC3CCN(CC)CC3)c2n1 [Example 91, 6-Amino-9-[2-(1-ethyl-4-piperidinyl)ethyl]-2-{[(1S)-1-methylbutyl]oxy}-7,9-dihydro-8H-purin-8-one] | < 1580 |
| > 31.6 | < 0.316 | CCC[C@H](C)Oc1nc(N)c2[nH]c(=O)n(CCCCC3CCN(CC)CC3)c2n1 [Example 119, 6-Amino-9-[4-(1-ethyl-4-piperidinyl)butyl]-2-{[(1S)-1-methylbutyl]oxy}-7,9-dihydro-8H-purin-8-one] | < 1580 |
| > 31.6 | < 0.316 | CCC[C@H](C)Oc1nc(N)c2[nH]c(=O)n(CCCC3CCN(C(C)C)CC3)c2n1 [Example 106, 6-Amino-2-{[(1S)-1-methylbutyl]oxy}-9-{3-[1-(1-methylethyl)-4-piperidinyl]propyl}-7,9-dihydro-8H-purin-8-one] | < 1580 |
| > 1000 | < 10 | CCCCOc1nc(N)c2[nH]c(=O)n(CCC3CCCN(CC)C3)c2n1 (stereo not shown) [Example 30, 6-Amino-2-(butyloxy)-9-[2-(1-ethyl-3-piperidinyl)ethyl]-7,9-dihydro-8H-purin-8-one] | < 1580 |
| > 1000 | < 100 | CCCCOc1nc(N)c2[nH]c(=O)n(CCC3CCCNC3)c2n1 (stereo not shown) [Example 29, 6-amino-2-(butyloxy)-9-[2-(3-piperidinyl)ethyl]-7,9-dihydro-8H-purin-8-one] | < 1580 |
| > 1000 | < 1 | CCCCOc1nc(N)c2[nH]c(=O)n(CCC3CCCN(C(C)C)C3)c2n1 (stereo not shown) [Example 32, 6-Amino-2-(butyloxy)-9-{2-[1-(1-methylethyl)-3-piperidinyl]ethyl}-7,9-dihydro-8H-purin-8-one] | < 1580 |
| > 31.6 | < 0.316 | CCCCOc1nc(N)c2[nH]c(=O)n(CCCC3CCCCN3CC(C)C)c2n1 (stereo not shown) [Example 18, 6-Amino-2-(butyloxy)-9-{3-[1-(2-methylpropyl)-2-piperidinyl]propyl}-7,9-dihydro-8H-purin-8-one] | < 1580 |
| > 31.6 | < 0.316 | CCC[C@H](C)Oc1nc(N)c2[nH]c(=O)n(CCC3CCCN(C(C)C)C3)c2n1 (stereo partly drawn) [Example 42, 6-Amino-2-{[(1S)-1-methylbutyl]oxy}-9-{2-[1-(1-methylethyl)-3-piperidinyl]ethyl}-7,9-dihydro-8H-purin-8-one] | < 1580 |
| > 31.6 | < 0.316 | CCCCOc1nc(N)c2[nH]c(=O)n(CCCCCC3CCNCC3)c2n1 [Example 122, 6-Amino-2-(butyloxy)-9-[5-(4-piperidinyl)pentyl]-7,9-dihydro-8H-purin-8-one] | < 1580 |
| > 1000 | < 100 | CCCCOc1nc(N)c2[nH]c(=O)n(CC3CCCN(C(C)C)C3)c2n1 (stereo not shown) [Example 24, 6-Amino-2-(butyloxy)-9-{[1-(1-methylethyl)-3-piperidinyl]methyl}-7,9-dihydro-8H-purin-8-one] | < 1580 |
| > 1000 | < 100 | CCCCOc1nc(N)c2[nH]c(=O)n(CC3CCN(CC)CC3)c2n1 [Example 7] | < 1580 |
| > 31.6 | < 0.316 | CCC[C@H](C)Oc1nc(N)c2[nH]c(=O)n(CCCC3CCNCC3)c2n1 [Example 104, 6-Amino-2-{[(1S)-1-methylbutyl]oxy}-9-[3-(4-piperidinyl)propyl]-7,9-dihydro-8H-purin-8-one] | < 1580 |
| > 1000 | < 1 | CCCCOc1nc(N)c2[nH]c(=O)n(CCCC3CCN(CCCC)CC3)c2n1 [Example 96, 6-Amino-2-(butyloxy)-9-[3-(1-butyl-4-piperidinyl)propyl]-7,9-dihydro-8H-purin-8-one] | < 1580 |
| > 1000 | < 100 | CCCCOc1nc(N)c2[nH]c(=O)n(CC3CCCN(CCC)C3)c2n1 (stereo not shown) [Example 23, 6-Amino-2-(butyloxy)-9-[(1-propyl-3-piperidinyl)methyl]-7,9-dihydro-8H-purin-8-one] | < 1580 |
| – | – | CCCCOc1nc(N)c2[nH]c(=O)n(CCCC3CCCN(CC)C3)c2n1 (stereo not shown) [Example 44, 6-Amino-2-(butyloxy)-9-[3-(1-ethyl-3-piperidinyl)propyl]-7,9-dihydro-8H-purin-8-one] | < 1580 |

| Structure (SMILES) | EC50 (TNF-α) [nM] | EC50 (Interferon-α [2]) [nM] | EC50 (Interferon-α [1]) [nM] |
| --- | --- | --- | --- |
| CCCCOc1nc(N)c2[nH]c(=O)n(CC3CCCN(CC)C3)c2n1 (stereo not shown) [Example 1, 6-Amino-2-butoxy-9-[(1-ethyl-3-piperidinyl)methyl]-7,9-dihydro-8H-purin-8-one] | > 1000 | < 100 | < 1580 |
